# Measured values reported in patent publication US7691898B2 (Kotobuki Pharmaceutical Co., Ltd., priority 2004, dated 2010).
# How the values were obtained:
# NaH2PO4 loaded mice = test: Inhibitory effect on the elevation of serum phosphate levels in NaH2PO4 loaded mice; format: in vivo; details: Mus musculus; male ddY mice, oral, compound 0.5 hours before oral NaH2PO4 load; serum phosphate AUC up to 4 hours
# Protocol: EVALUATION OF INHIBITORY EFFECT ON THE ELEVATION OF SERUM PHOSPHATE LEVELS 1N NaH2PO4 LOADED MICE Male ddY mice, aged 6-7 weeks, were fasted overnight and used as 6 mice/group. The compounds suspended in 0.5% methylcellulose were administered orally at a dose of 100 or 300 mg/10 mL/kg. After 0.5 hours, 50 mg/300 uL/mouse of NaH2PO4 solution was administered orally. Blood samples were taken from retro-orbital venousplexus of the mice before administration of the compounds and 0.5, 1, 2 and 4 hours after the NaH2PO4 administration, and serum phosphate concentration was measured using phospha C-test Wako kit (Wako pure chemicals Co. Ctd.). The area under the serum phosphate concentration-time curve (AUC) up to 4 hours after administration of NaH2PO4 was calculated and the inhibitory effect of serum phosphate levels was evaluated.
# [1] = system: Human alkaline phosphatase; test: Stability test against human alkaline phosphatase; format: in vitro ADME; details: for amount of compound (HPLC) after incubation with human alkaline phosphatase: 2 U/mL enzyme, 0.1 M carbonate buffer, 37° C.
# Protocol: Compound 42 or 2′-PP was dissolved in dimethyl sulfoxide and the concentration was adjusted to 1×10^−2 M. […] The amounts of each compound were measured by the HPLC method (HPLC condition, column: Inertsil ODS-2, eluent: 10 mM phosphate buffer/CH3CN=8/2, wavelength: 230 nm, flow rate: 1 mL/min).
SMILES,ED30 (NaH2PO4 loaded mice),other results
"CCOc1ccc(Cc2cc(CP(=O)(O)O)ccc2O)cc1 [Compound 20, [3-(4-Ethoxybenzyl)-4-hydroxybenzyl]phosphonic acid]",244 mg/kg,–
"CCOc1ccc(Cc2cc(C(=O)P(=O)(O)O)ccc2O)cc1 [Compound 38, [3-(4-Ethoxybenzyl)-4-hydroxybenzoyl]phosphonic acid]",44.5 mg/kg,–
"CSc1ccc(Cc2cc(C(=O)P(=O)(O)O)ccc2O)cc1 [Compound 42, [4-Hydroxy-3-(4-methylthiobenzyl)benzoyl]phosphonic acid]",33.3 mg/kg,amount of compound (HPLC) after incubation with human alkaline phosphatase ([1]; Time 0 hr): 100%; amount of compound (HPLC) after incubation with human alkaline phosphatase ([1]; Time 0.25 hr): 96.3%; amount of compound (HPLC) after incubation with human alkaline phosphatase ([1]; Time 0.5 hr): 96%; amount of compound (HPLC) after incubation with human alkaline phosphatase ([1]; Time 1 hr): 95.8%; amount of compound (HPLC) after incubation with human alkaline phosphatase ([1]; Time 2 hr): 95.5%; stability against human alkaline phosphatase (in words) ([1]; conclusion from Table 1): stable
"CCCOc1ccc(Cc2cc(C(=O)P(=O)(O)O)ccc2O)cc1 [Compound 45, [4-Hydroxy-3-(4-n-propoxybenzyl)benzoyl]phosphonic acid]",20.1 mg/kg,–
"CC(C)Oc1ccc(Cc2cc(C(=O)P(=O)(O)O)ccc2O)cc1 [Compound 46, [4-Hydroxy-3-(4-i-propoxybenzyl)benzoyl]phosphonic acid]",16.3 mg/kg,–
"O=C(c1ccc(O)c(Cc2ccc(Oc3ccccc3)cc2)c1)P(=O)(O)O [Compound 49, [4-Hydroxy-3-(4-phenoxybenzyl)benzoyl]phosphonic acid]",17.8 mg/kg,–
"O=C(c1ccc(O)c(Cc2cc3ccccc3s2)c1)P(=O)(O)O [Compound 54, [3-(Benzo[b]thiophen-2-ylmethyl)-4-hydroxybenzoyl]phosphonic acid]",13.9 mg/kg,–
"CCOc1ccc(Cc2cc(C(=O)P(=O)(O)O)ccc2OCCO)cc1 [Compound 57, [3-(4-Ethoxybenzyl)-4-(2-hydroxyethoxy)benzoyl]phosphonic acid]",30.9 mg/kg,–
"CSc1ccc(Cc2cc(C(=O)P(=O)(O)O)ccc2OCCO)cc1 [Compound 60, [4-(2-Hydroxyethoxy)-3-(4-methylthiobenzyl)benzoyl]phosphonic acid]",12.1 mg/kg,–
"CCOc1ccc(Cc2ccc(P(=O)(O)O)s2)cc1 [Compound 64, 5-(4-Ethoxybenzyl)-2-thiophenephosphonic acid]",165 mg/kg,–
"CCOc1ccc(Cc2ccc(CP(=O)(O)O)s2)cc1 [Compound 65, [5-(4-Ethoxybenzyl)thiophen-2-ylmethyl]phosphonic acid]",256 mg/kg,–
"CCOc1ccc(Cc2ccc(C(=O)P(=O)(O)O)s2)cc1 [Compound 70, [5-(4-Ethoxybenzyl)thiophen-2-carbonyl]phosphonic acid]",20.3 mg/kg,–
"CSc1ccc(Cc2ccc(C(=O)P(=O)(O)O)s2)cc1 [Compound 73, [5-(4-Methylthiobenzyl)thiophen-2-carbonyl]phosphonic acid]",4.5 mg/kg,–
"O=C(c1ccc(Cc2ccc(Cl)cc2)s1)P(=O)(O)O [Compound 75, [5-(4-Chlorobenzyl)thiophen-2-carbonyl]phosphonic acid]",25.6 mg/kg,–
"CCSc1ccc(Cc2ccc(C(=O)P(=O)(O)O)s2)cc1 [Compound 76, [5-(4-Ethylthiobenzyl)thiophen-2-carbonyl]phosphonic acid]",2 mg/kg,–
"CCCCCCCCCCCCCOc1ccc(Cc2ccc(C(=O)P(=O)(O)O)s2)cc1 [Compound 83, [5-(4-n-Tridecanyloxybenzyl)thiophen-2-carbonyl]phosphonic acid]",10.7 mg/kg,–
O=C(CCc1ccc(O)cc1)c1c(O)cc(O)cc1OP(=O)(O)O [reference compound],–,amount of compound (HPLC) after incubation with human alkaline phosphatase ([1]; Time 0 hr): 100%; amount of compound (HPLC) after incubation with human alkaline phosphatase ([1]; Time 0.25 hr): 31.4%; amount of compound (HPLC) after incubation with human alkaline phosphatase ([1]; Time 0.5 hr): 21.4%; amount of compound (HPLC) after incubation with human alkaline phosphatase ([1]; Time 1 hr): 16.3%; amount of compound (HPLC) after incubation with human alkaline phosphatase ([1]; Time 2 hr): 1.2%
